Reference: paper PMC8695447, “Novel Small Molecules Capable of Blocking mtRAS-Signaling Pathway” (Frontiers in Oncology, 2021)

Tests used:
DU-145 (KRAS-G12V) = assay: Anti-proliferation assay on DU-145; assay type: cell-based; conditions: Homo sapiens, DU-145; 72 h treatment; average with SD (n = 3, duplicate)
Protocol: (§1) Ba/F3-parental, OCI-AML3, U397 cells were purchased from DSMZ. MDA-MB-231, HCT-116, AsPC-1, H358, HT-29, SW480, and DU-145 cells were obtained from KCLB. MDA-MB-468 cells were obtained from ATCC. All cells were maintained in RPMI with 10% FBS and antibiotics. Cells were grown in a humidified 5% CO2 incubator at 37°C. Ba/F3-parental cells were grown in the presence of 10 ng/ml IL-3. NRAS-G12D or NRAS-G12V transformed Ba/F3 cell lines (Ba/F3-NRAS-G12D, and Ba/F3-NRAS-G12V, respectively) were cultured without IL-3, which were established by the procedure described as previously ([30]).
(§2) Approximately 3.0 × 10^3 cells/well were seeded in a 96-well cell culture plate. After stabilization, 1/3 serially diluted compound in DMSO was treated to the cell. […] All GI50 values were obtained in duplicate with three independent assays and averages with standard deviation are presented.

HCT-116 (KRAS-G13D) = assay: Anti-proliferation assay on HCT-116; assay type: cell-based; conditions: Homo sapiens, HCT-116; 72 h treatment; average with SD (n = 3, duplicate)
Protocol: as §1, §2

H358 (KRAS-G12C) = assay: Anti-proliferation assay on H358; assay type: cell-based; conditions: Homo sapiens, NCI-H358; 72 h treatment; average with SD (n = 3, duplicate)
Protocol: as §1, §2

OCI-AML3 (NRAS-Q61L) = assay: Anti-proliferation assay on OCI-AML3; assay type: cell-based, human; conditions: Homo sapiens, OCI-AML-3; 72 h treatment; average with SD (n = 3, duplicate)
Protocol: as §1, §2

MDA-MB-231 (KRAS-G13D) = assay: Anti-proliferation assay on MDA-MB-231; assay type: cell-based; conditions: Homo sapiens, MDA-MB-231; 72 h treatment; average with SD (n = 3, duplicate)
Protocol: as §1, §2

Ba/F3-parental cells = assay: Anti-proliferation assay (CellTiter Glo) on Ba/F3-parental; assay type: cell-based; conditions: Mus musculus, BaF3; 72 h treatment; with 10 ng/ml IL-3; average with SD (n = 3, duplicate)
Protocol: as §1, §2

AsPC-1 (KRAS-G12D) = assay: Anti-proliferation assay on AsPC-1; assay type: cell-based; conditions: Homo sapiens, ASPC1; 72 h treatment; average with SD (n = 3, duplicate)
Protocol: as §1, §2

SW480 (KRAS-G12V) = assay: Anti-proliferation assay on SW480; assay type: cell-based; conditions: Homo sapiens, SW480; 72 h treatment; average with SD (n = 3, duplicate)
Protocol: as §1, §2

Ba/F3-NRAS-G12D cells = assay: Anti-proliferation assay (CellTiter Glo) on Ba/F3-NRAS-G12D; assay type: cell-based; conditions: Mus musculus, BaF3; 72 h treatment; average with SD (n = 3, duplicate)
Protocol: as §1, §2

[1] = system: MDA-MB-468 (KRAS, NRAS-wt); assay: Anti-proliferation assay on MDA-MB-468; assay type: cell-based; conditions: Homo sapiens, MDA-MB-468; 72 h treatment; average with SD (n = 3, duplicate)
Protocol: as §1, §2

Ba/F3-NRAS-G12V cells = assay: Anti-proliferation assay (CellTiter Glo) on Ba/F3-NRAS-G12V; assay type: cell-based; conditions: Mus musculus, BaF3; 72 h treatment; average with SD (n = 3, duplicate)
Protocol: as §1, §2

U937 (KRAS, NRAS-wt) = assay: Anti-proliferation assay on U937; assay type: cell-based; conditions: Homo sapiens, U-937; 72 h treatment; average with SD (n = 3, duplicate)
Protocol: as §1, §2

HT-29 (KRAS-Q61L) = assay: Anti-proliferation assay on HT-29; assay type: cell-based; conditions: Homo sapiens, HT-29; 72 h treatment; average with SD (n = 3, duplicate)
Protocol: as §1, §2

| SMILES | GI50 (DU-145 (KRAS-G12V)) [nM] | GI50 (HCT-116 (KRAS-G13D)) [nM] | GI50 (H358 (KRAS-G12C)) [nM] | GI50 (OCI-AML3 (NRAS-Q61L)) [nM] | GI50 (MDA-MB-231 (KRAS-G13D)) [nM] | GI50 (Ba/F3-parental cells) [nM] | GI50 (AsPC-1 (KRAS-G12D)) [nM] | GI50 (SW480 (KRAS-G12V)) [nM] | GI50 (Ba/F3-NRAS-G12D cells) [nM] | GI50 [1] [nM] | GI50 (Ba/F3-NRAS-G12V cells) [nM] | GI50 (U937 (KRAS, NRAS-wt)) [nM] | GI50 (HT-29 (KRAS-Q61L)) [nM] |
| --- | --- | --- | --- | --- | --- | --- | --- | --- | --- | --- | --- | --- | --- |
| CCN1CCN(c2ccc(Nc3ncc4c(n3)N(C)C(=O)N(c3cc(NC(=O)c5cccc(C(F)(F)F)c5)ccc3C)C4)c(C(F)(F)F)c2)CC1 [Compound 8, N-(3-(7-((4-(4-Ethylpiperazin-1-yl)-2-(trifluoromethyl)phenyl)amino)-1-methyl-2-oxo-1,4-dihydropyrimido[4,5-d]pyrimidin-3(2H)-yl)-4-methylphenyl)-3-(trifluoromethyl)benzamide] | 3990 ± 566 | 5810 ± 965 | 8980 ± 246 | 687 ± 154 | 2790 ± 658 | 3920 ± 722 | 6650 ± 102 | 5790 ± 657 | 1255 ± 6 | > 50000 | 944 ± 112 | 6060 ± 2180 | 2140 ± 109 |
| CCN1CCC(n2cc(Nc3ncc4c(n3)N(C)C(=O)N(c3cc(NC(=O)c5cccc(C(F)(F)F)c5)ccc3C)C4)cn2)CC1 [Compound 13, N-(3-(7-((1-(1-Ethylpiperidin-4-yl)-1H-pyrazol-4-yl)amino)-1-methyl-2-oxo-1,4-dihydropyrimido[4,5-d]pyrimidin-3(2H)-yl)-4-methylphenyl)-3-(trifluoromethyl)benzamide] | 76 ± 26 | 77 ± 27 | 147 ± 31 | 36 ± 7 | 55 ± 20 | 889 ± 61 | 186 ± 22 | 269 ± 61 | 114 ± 18 | 16200 ± 6020 | 130 ± 28 | 690 ± 35 | 164 ± 2 |
| Cc1ccc(NC(=O)c2cccc(C(F)(F)F)c2)cc1N1Cc2cnc(Nc3ccc(N4CCCCC4)cc3)nc2N(C)C1=O [Compound 1, N-(4-Methyl-3-(1-methyl-2-oxo-7-((4-(piperidin-1-yl)phenyl)amino)-1,4-dihydropyrimido[4,5-d]pyrimidin-3(2H)-yl)phenyl)-3-(trifluoromethyl)benzamide] | 1040 ± 400 | 1240 ± 554 | 1380 ± 96 | 611 ± 65 | 1120 ± 290 | > 50000 | 2020 ± 56 | 4510 ± 873 | 586 ± 91 | > 50000 |  | > 50000 | 1310 ± 54 |
| Cc1ccc(NC(=O)c2cccc(C(F)(F)F)c2)cc1N1Cc2cnc(Nc3ccn(C)n3)nc2N(C)C1=O [Compound 11, N-(4-Methyl-3-(1-methyl-7-((1-methyl-1H-pyrazol-3-yl)amino)-2-oxo-1,4-dihydropyrimido[4,5-d]pyrimidin-3(2H)-yl)phenyl)-3-(trifluoromethyl)benzamid] | 89 ± 47 | 45 ± 16 | 240 ± 42 | 103 ± 1 | 108 ± 26 | 1160 ± 330 | 318 ± 10 | 286 ± 39 | 185 ± 15 | > 50000 | 259 ± 126 | 7000 ± 1120 | 355 ± 54 |
| Cc1ccc(NC(=O)c2cccc(C(F)(F)F)c2)cc1N1Cc2cnc(Nc3ccc(N4CCC(O)CC4)cc3)nc2N(C)C1=O [Compound 2, N-(3-(7-((4-(4-Hydroxypiperidin-1-yl)phenyl)amino)-1-methyl-2-oxo-1,4-dihydropyrimido[4,5-d]pyrimidin-3(2H)-yl)-4-methylphenyl)-3-(trifluoromethyl)benzamide] | 40 ± 20 | 15 ± 9 | 201 ± 23 | 101 ± 22 | 90 | 827 ± 142 | 257 ± 129 | 293 ± 50 | 116 ± 37 | 20200 ± 8770 | 181 ± 42 | 1690 ± 624 | 143 ± 10 |
| Cc1ccc(Nc2ncc3c(n2)N(C)C(=O)N(c2cc(NC(=O)c4cccc(C(F)(F)F)c4)ccc2C)C3)c(C)n1 [Compound 6, N-(3-(7-((2,6-Dimethylpyridin-3-yl)amino)-1-methyl-2-oxo-1,4-dihydropyrimido[4,5-d]pyrimidin-3(2H)-yl)-4-methylphenyl)-3-(trifluoromethyl)benzamide] | 1170 ± 124 | 1530 ± 390 | 2060 ± 1130 | 374 ± 24 | 646 ± 68 | 1470 ± 317 | 3170 ± 244 | 2050 ± 51 | 569 ± 28 | > 50000 | 428 ± 161 | 2870 ± 142 | 3250 ± 176 |
| Cc1ccc(NC(=O)c2cccc(C(F)(F)F)c2)cc1N1Cc2cnc(NCCCN3CCOCC3)nc2N(C)C1=O [Compound 5, N-(4-Methyl-3-(1-methyl-7-((3-morpholinopropyl)amino)-2-oxo-1,4-dihydropyrimido[4,5-d]pyrimidin-3(2H)-yl)phenyl)-3-(trifluoromethyl)benzamide] | 1880 ± 125 | 2540 ± 1810 | 5140 ± 368 | 538 ± 162 | 1110 ± 127 | 5730 ± 148 | 4160 ± 2170 | 6440 ± 264 | 457 ± 141 | > 50000 | 351 ± 34 | 4720 ± 488 | 3120 ± 460 |
| CCN1CCN(c2ccc(Nc3ncc4c(n3)N(C)C(=O)N(c3cc(NC(=O)c5cccc(C(F)(F)F)c5)ccc3C)C4)cc2)CC1 [Compound 4, N-(3-(7-((4-(4-Ethylpiperazin-1-yl)phenyl)amino)-1-methyl-2-oxo-1,4-dihydropyrimido[4,5-d]pyrimidin-3(2H)-yl)-4-methylphenyl)-3-(trifluoromethyl)benzamide] | 32 ± 14 | 25 ± 10 | 236 ± 29 | 44 ± 14 | 83 ± 22 | 857 ± 108 | 135 ± 18 | 163 | 230 ± 129 | 26100 ± 7900 | 213 ± 53 | 1040 ± 225 | 126 ± 2 |
| Cc1ccc(NC(=O)c2cccc(C(F)(F)F)c2)cc1N1Cc2cnc(Nc3ccc(N4CCOCC4)cc3)nc2N(C)C1=O [Compound 3, N-(4-Methyl-3-(1-methyl-7-((4-morpholinophenyl)amino)-2-oxo-1,4-dihydropyrimido[4,5-d]pyrimidin-3(2H)-yl)phenyl)-3-(trifluoromethyl)benzamide] | 30 ± 8 | 18 ± 6 | 265 ± 4 | 80 ± 16 | 49 ± 12 | 1060 ± 55 | 136 ± 11 | 382 ± 52 | 120 ± 39 | > 50000 | 134 ± 45 | 2220 ± 163 | 227 ± 12 |
